Reference: US6403774B1, “Azoamidine compound” (Wako Pure Chemical Industries, Ltd., priority 2000, dated 2002)

Assay: Thermal decomposition of the azo compound (10 hour half-life temperature, decomposition rate constant)
Assay type: physicochemical

2,2′-azobis[2-methyl-1-(1-pyrrolidinyl)iminopropane] hydrochloride [Example 1]
10 hour half-life temperature: 66.5 °C | Decomposition rate constant k60° C. (60° C.): 7.94e-06 s⁻¹ | Decomposition rate constant k70° C. (70° C.): 3.03e-05 s⁻¹ | Ea (decomposition kinetics): 30.39 kcal/mol | lnA (decomposition kinetics): 34.19
